Key:
mutant yeast strain = test: IC50 assay in yeast, rescue from adenine toxicity (HTS growth format); format: cell-based; conditions: Saccharomyces cerevisiae, 22 h, read-out: IC50, rescuing mutant yeast strain from adenine toxicity
Procedure: Yeast strains were grown over night at 30° C. in SD medium without adenine and were diluted to OD600 0.005. 80 μL of cells were platted on 384 wells plates and incubated at 30° C. for 22 hours with continuous shaking. OD600 was measured using Tecan™ SPARK 10M plate reader.
Yeast strains were diluted to OD600 0.005. 80 μL of cells were platted on 384 wells plates. Compounds were added with Tecan™ D300 printer at relevant concentrations and plates were incubated at 30° C. for 22 hours with continuous shaking. OD600 was measured using Tecan™ SPARK 10M plate reader. IC50 calculations were performed with CDD software.
The high-throughput screening was calibrated for 384 plate format using phenotypic assay based on yeast growth rate (measured by OD). The goal was to find hit compounds that will dramatically improve the growth rate as compared to the salvage mutant in the presence of adenine. All relevant controls were used including: mutant yeast grown without adenine addition, WT yeast, and mutant yeast in the presence of adenine with Prazosin as a positive control compound. Potential hits were selected after calculations of growth curve slopes and area under the curve during the logarithmic phase. After hit validation and dose response experiments, hits displaying low IC50 rates were selected implying on a good potential for some of the compounds (FIG. 14).

adenine fibrils [1] = test: ThT assay of adenine self-assembly inhibition in vitro; conditions: adenine 8 mg/ml in PBS with inhibitor
Procedure: Adenine was dissolved at 90° C. in PBS to a final concentration of 8 mg/ml and mixed with the indicated inhibitor, at the indicated concentrations, or with PBS as a control, followed by addition of ThT in PBS. ThT emission data at 480 nm (excitation at 450 nm) were measured at the end point.
Adenine was dissolved to a final concentration of 8 mg/ml at 90° C. in PBS. The solution was plated on a 96-well black plate and mixed with the inhibitor baicalein at the stated concentration, and with 20 μm ThT (final concentration). Fluorescence (excitation at 450 nm, emission at 480 nm) was recorded over time using a Tecan™ Infinite® 200 PRO plate reader. Data processing was performed using the OriginLab software.
To further examine if the compounds specifically target the adenosine amyloid-like structures. the compounds were tested using adenine in-vitro aggregation assay. Adenine was self-assembled with and without the inhibitors and stained with the amyloids dye, Thioflavin T (ThT). […] More specifically. Adenosine (30 mg/mL) and guanosine (3 mg/ml) were dissolved in PBS at 90° C., followed by the addition of ThT at final concentration of 20 μM. ThT emission data at 480 nm (excitation at 450 nm) was measured over time. TEM images show elongated adenosine fibrils (10 mg/mL) and guanosine fibrils (1 mg/mL) (FIGS. 34A and 34B, respectively). ThT fluorescence assay of adenosine and guanosine assemblies, are shown by FIGS. 34C, and 34D respectively.

[2] = test system: adenosine aggregates in ADA deficient LCLs; test: Aggregation assay (Proteostat, FACS) on ADA deficient LCLs; format: cell-based, human; conditions: for formation of adenosine aggregates (aggregation level, Proteostat staining): patient derived lymphoblastoids, 19 concentrations from 50 μM to 0.003 μM
Procedure: 24 hours after seeding in full medium cells were washed with medium without serum and placed in medium without serum. Following 72 hours of incubation with or without Adenosine (A9251 SIGMA) (200 ug/ml), cells were washed with PBS and stained for adenosine aggregates with Proteostat dye (ENZ-51023-KP002). Proteostat concentration was 1:3000 of diluted stock. Following 15 minutes' incubation, cells were washed with PBS and mean fluorescence was measured with FACS.
Cells were treated with adenosine alone or with adenosine with compounds. Compound activity was tested in 19 concentrations in range from 50 uM to 0.003 uM.
Readouts: Proteostat Fluorescence intensity was measured with FACS at 2 excitation wavelengths: 488 nm and 550 nm. Emission wavelength was 600 nm.
24 hours after seeding in 96 round bottom plates in full medium cells were washed once with medium without serum and placed in medium without serum. Following 72 hours of incubation with or without Adenosine (200 ug/ml) and with or without purpurin (2 uM), cells were washed once with PBS and stained for adenosine aggregates with Proteostat dye (Enzo Life Sciences). Proteostat concentration was 1:4000 of diluted stock. Following 15 minutes incubation, cells were washed with PBS and mean flow cytometry was preformed using Stratedigm S1000EXi and the CellCapTure software (Stratedigm, San Jose, Calif.). Analyses were performed using FlowJo software (TreeStar, version 10).
For quantification of intracellular adenosine aggregates by FACS analyses, 100,000 cells were seeded in 96 well plates in full medium. After 24 hours, cells were centrifuged, washed once and added with serum free medium with or without Adenosine (200 μg/ml). After incubation of 72 hours cells were washed with PBS and stained for adenosine aggregates with Proteostat dye. Following 15 minutes incubation, cells were washed with PBS and mean fluorescence was measured with FACS. Mean cell fluorescence of every cell line was normalized to its signal without adenosine and data is presented as percentage of aggregates.

ADA deficient LCLs = test: LCLs survival assay (XTT), ADA deficient LCLs; format: cell-based, human
Procedure: (§1) 24 hours after seeding in 96 round bottom plates in full medium cells were washed once with medium without serum and placed in medium without serum. Following 72 hours of incubation with or without Adenosine (200 ug/ml) and with or without purpurin (2 uM), XTT based cell viability assay was performed. Absorbance was measured with Tecan™ SPARK 10M plate reader.
(§2) In order to assess the toxic effect of adenosine aggregates, XTT based cell viability assays were performed on healthy and ADA deficient LCLs. Cells went through similar procedure as described above except adenosine was at 300 μg/ml. Survival percentage was calculated as absorbance with adenosine divided by absorbance without adenosine. […] Moreover. 4 out of 5 ADA deficient cell lines display less than 20% survival (FIG. 15B cell lines 7,8,9,11,12).

aah1Δapt1Δ strain = test: Yeast growth assay of adenine salvage mutant with adenine feeding; format: cell-based, Saccharomyces cerevisiae
Procedure: (§3) Strains were grown over night at 30° C. in SD medium without adenine. For spotting assays, strains were diluted to 6.25*10^7 cells/mL and were then 5-fold serially diluted and spotted on SD media with the indicated concentrations of adenine or TA (Sigma-Aldrich). Plates were incubated at 30° C. for 2 days. […] For OD600 measurements, strains were diluted to OD600 0.01, 200 μL of cells were platted on 96 wells plates and incubated at 30° C. for 25 hours with continuous shaking. OD600 was measured using Tecan™ SPARK 10M plate reader.
For the percentage of growth analysis (FIG. 10B and FIG. 13A), OD600 was measured when cells reached log phase. The percentage of growth represents the growth with TA compared to the growth without TA.

[3] = test system: adenine aggregation in aah1Δapt1Δ cells; test: Flow cytometry with ProteoStat staining of salvage mutant; format: cell-based, Saccharomyces cerevisiae; conditions: adenine in media, TA 0.5 mM
Procedure: An amount of 1 mL of logarithmic cells were washed with PBS buffer and sonicated using 15 s pulses at 20% power. For each sample, 2*10^6 cells were resuspended with ProteoStat dye (Enzo Life Sciences) diluted 1:3000 in ProteoStat assay buffer. Cells were incubated for 15 min at room temperature protected from light. Flow cytometry was preformed using Stratedigm S1000EXi and the CellCapTure software (Stratedigm, San Jose, Calif.). Live cells were gated (P1) by forward scatter and side scatter. Fluorescence channels for FITC (530/30) and PE-Cy5 (676/29) were used utilizing a 488 nm laser source. A total of 50,000 events were acquired for each sample. Analyses were performed using FlowJo software (TreeStar, version 10).

aah1Δapt1Δ cells [4] = test: Confocal microscopy with ProteoStat staining of salvage mutant; format: cell-based, Saccharomyces cerevisiae; conditions: adenine in media, TA 0.5 mM
Procedure: An amount of 1 mL of logarithmic cells were washed with PBS buffer, sonicated using 15 s pulses at 20% power and resuspended in 50 μL of ProtesoStat dye diluted 1:250 in ProteoStat assay buffer. Cells were incubated for 15 min at room temperature protected from light. 10 μL of each sample was deposited on poly-lysine coated glass slides (Sigma-Aldrich). Cells were imaged using Leica TCS SP8 laser confocal microscope with 63×1.4 NA or 100*1.4 NA oil objectives. To visualize the nuclei, Hoechst (33342; ImmunoChimestry) was used. An argon laser with 488 excitation line was used for ProteoStat (emission wavelength, 500 to 600 nm), and a 405 UV laser was used to excite Hoechst fluorescence (emission wavelength, 415 to 450 nm).

aah1Δapt1Δ cells [5] = test: LC-MS detection of TA and adenine inside cells; format: cell-based, Saccharomyces cerevisiae; conditions: cells grown in SD medium containing adenine and TA
Procedure: 100 ml of cells at the logarithmic phase were centrifuged and washed three times with PBS. 1 ml of the growth medium and of each wash were collected for LC-MS analysis. After the third wash, the pellet was resuspended in PBS together with acid-washed glass beads. Tubes were vortexed for 45 minutes in 4° C. using disruptor-genie. Cell debris and soluble material were separated by centrifugation. Both fractions as well as the medium and washes were analyzed by MS. The pellet was resuspended in 200 μl DMSO, heated for 5 minutes at 85° C. and sonicated for 5 minutes at 40° C. The lysis mixture was centrifuged at 6000 rpm for 10 minutes. 150 μl of the lysate were transferred to a Waters 96 well ACQUITY collection plate for LC-MS analysis. 20 μl of each sample were injected to Waters Autopurification system analytical module equipped with SQD2 MS detector at the following conditions: a. LC: Waters XSelect Peptide CSH C18 column (5 μm, 4.6 mm×100 mm) using a 10 minute gradient from 95:5 Water:acetonitrile (both with 0.1% formic acid) to acetonitrile (0.1% formic acid); b. MS: acquisition parameters were optimized in order to select the proper ion for selected ion monitoring (SIR) experiments.

wild-type strain = test: Yeast growth assay of wild-type strain; format: cell-based, Saccharomyces cerevisiae; conditions: 13 mg/L cysteine, 80 mg/L homocysteine, 0.3 mM TA
Procedure: as §3

cys4Δ strain = test: Yeast growth assay of cys4Δ mutant with homocysteine; format: cell-based, Saccharomyces cerevisiae; conditions: 13 mg/L cysteine, 80 mg/L homocysteine, 0.3 mM TA
Procedure: FIG. 27E: WT and cys4Δ strains diluted to OD600 0.01 were grown in SD media containing 13 mg/L cysteine and 80 mg/L homocysteine in the under the indicated conditions. 0.3 mM TA was added to the samples at different OD600. The percentage of growth represents the growth the indicated condition compared to the growth of WT without TA. *P<0.05 (Student's t-test).
Homocystinuria results from cystathionine beta synthase (CBS) deficiency, leading to excess of Hcy. A knockout mutation in CYS4, the highly-conserved functional yeast ortholog of the human cystathionine beta synthase (CBS) known to be essential for Hcy salvage, was therefore generated. Due to the contribution of this enzyme to cysteine biosynthesis, it was first shown that its absence confers cysteine dependence (FIG. 27A). […] To examine whether the observed toxicity was associated with the in vivo formation of amyloid-like assemblies, the cells were stained with the amyloid-specific fluorescent dye ProteoStat which allows to detect intracellular amyloid fibrils. […] Next, to further establish the amyloid-like nature of the aggregates, the fibrillation-modifying polyphenolic compound tannic acid (TA) was used (FIG. 27E).

adenine fibrils [6] = conditions: previously demonstrated, reference [4]; cited from earlier work
phenylalanine assemblies = conditions: reference [4]; cited from earlier work
healthy LCLs = test: LCLs survival assay (XTT), healthy LCLs; format: cell-based, human; conditions: adenosine 300 μg/ml
Procedure: as §1, §2

O=C1c2ccccc2C(=O)c2c(O)c(O)cc(O)c21 [Purpurin, 1,2,4-trihydroxyanthracene-9,10-dione]
IC50 (mutant yeast strain): 0.0144 µM
amyloids staining (ThT, end point) (adenine fibrils [1]): significantly reduced the amyloids staining
Proteostat staining of adenosine aggregates ([2]; 2 μM Purpurin, adenosine 200 μg/ml, 72 hours): reduced to significantly lower levels
formation of adenosine aggregates (aggregation level, Proteostat staining) [2]: significantly reduce the aggregation level
formation of adenosine aggregates (aggregation level, Proteostat staining) ([2]; listed as purpurin): inhibited the formation of these aggregates
cell viability (XTT) (ADA deficient LCLs; 2 μM Purpurin, with adenosine, 72 hours, vs control LCLs): substantial improvement in cell viability

O=C(OC[C@H]1O[C@@H](OC(=O)c2cc(O)c(O)c(OC(=O)c3cc(O)c(O)c(O)c3)c2)[C@H](OC(=O)c2cc(O)c(O)c(OC(=O)c3cc(O)c(O)c(O)c3)c2)[C@@H](OC(=O)c2cc(O)c(O)c(OC(=O)c3cc(O)c(O)c(O)c3)c2)[C@@H]1OC(=O)c1cc(O)c(O)c(OC(=O)c2cc(O)c(O)c(O)c2)c1)c1cc(O)c(O)c(OC(=O)c2cc(O)c(O)c(O)c2)c1 [TA, Tannic acid]
formation of adenine amyloid-like assemblies / growth, inhibitor added at earlier time points (aah1Δapt1Δ strain; 0.5 mM TA added at earlier time points of yeast growth): hinder the formation of adenine amyloid-like assemblies
growth, inhibitor added at later stages (aah1Δapt1Δ strain; 0.5 mM TA added at later stages of yeast growth): no effect on their growth
cell growth of the salvage mutant (aah1Δapt1Δ strain; in the presence of adenine, TA added to the yeast media at various concentrations): clearly improved cell growth of the salvage mutant in a dose-dependent manner
metabolite aggregation (ProteoStat, flow cytometry) [3]: decrease in metabolite aggregation
ProteoStat stained dots (confocal microscopy) (aah1Δapt1Δ cells [4]): absence of the stained dots
presence inside the cell (LC-MS) (aah1Δapt1Δ cells [5]): detected inside the cell
growth of wild-type strain (wild-type strain): no effect was observed
growth inhibition of the salvage mutant strain in the presence of Hcy (cys4Δ strain): significantly ameliorated the growth inhibition
adenine self-assembly in vitro (adenine fibrils [6]): inhibition of adenine self-assembly in vitro
phenylalanine aggregation and cytotoxicity of the assemblies in vitro (phenylalanine assemblies): counteract

Nc1ncnc2c1ncn2[C@@H]1O[C@H](CO)[C@@H](O)[C@H]1O [adenosine, Adenosine]
Proteostat staining of ADA deficient LCLs compared to healthy LCLs ([2]; adenosine 200 μg/ml, 72 hours): 2-3 fold
survival of ADA deficient LCLs in the presence of adenosine (ADA deficient LCLs; adenosine 300 μg/ml, XTT): below 40%
survival, 4 out of 5 ADA deficient cell lines (ADA deficient LCLs; adenosine 300 μg/ml, XTT): less than 20%
survival of healthy LCLs in the presence of adenosine (healthy LCLs): above 70%
